Data: patent publication US20250268913A1, “PKC INHIBITORS FOR THE TREATMENT OF SEPTIC CHOLESTASIS WITH CTM TARGETING” (SMARTDYELIVERY GMBH, priority 2018, published 2025)

Key:
[1] = cited from earlier work
[2] = compared to placebo; cited from earlier work
PCI model, C57/BL6 mice = experiment: Survival rate in cholestasis model under septic conditions, peritoneal contamination and infection (PCI); type: in vivo; conditions: free drug alone, 4 mg/kg body weight
Experimental: In order to mimic the septic cholestasis, a systemic inflammation was induced using the well-established peritoneal contamination and infection (PCI) model. In this model, a human feces suspension is applied intraperitoneally (i.p.) and rapidly triggers sepsis with liver dysfunction. For each batch of human stool, the dose is titrated carefully for a survival between 0% and 20% within two weeks.
To find the adequate dose of stool, different doses were tested. 6 h after i.p. application of the stool, 8-12 weeks old C57/BL6 mice or FVB/N mice were treated with the nanoparticles or the free drug respectively.
A systemic infection/sepsis with organ failure was induced in male C57/BL6 mice by using the PCI model. For this purpose, a human fecal suspension (2.5 μl/g BW for stool batch1 and 6 μl/g for stool batch 2, respectively) was injected intraperitoneally (without anesthesia) with weight adaptation, thus triggering peritonitis with subsequent systemic infection. […] The animals were closely monitored and scored every 6 hours for signs of infection in order to timely. […] With the evaluated dose of 6 μl/g BW stool and additional antibiotic therapy, all mice died within three days, as shown in the Kaplan-Meier-Schätzer diagram (FIG. 14, right panel). […]

SMILES: CO[C@@H]1[C@H](N(C)C(=O)c2ccccc2)C[C@H]2O[C@]1(C)n1c3ccccc3c3c4c(c5c6ccccc6n2c5c31)C(=O)NC4 [midostaurin]
- Serious adverse reactions due to infections and gastrointestinal disorders ([1]; most common serious adverse reactions): ≥ 20%
- on-treatment deaths from disease progression attributed to infection ([1]; number of deaths): 4
- adverse reaction sepsis occurring in patients ([1]; page 8 of the professional information): ≥ 9 % of patients
- Grade ≥3 adverse reactions reported (fatigue, sepsis, gastrointestinal hemorrhage, pneumonia, diarrhea, febrile neutropenia) ([1]; patients): ≥ 5%
- Serious adverse reactions ([1]; patients): 68 % of patients
- Treatment discontinuation due to adverse reaction ([1]; patients): 21 % of patients

SMILES: CC[C@H](Nc1ncnc2[nH]cnc12)c1nc2cccc(F)c2c(=O)n1-c1ccccc1 [idelalisib]
- risk of developing sepsis as adverse effect [2]: five-fold higher

SMILES: O=C1NC(=O)/C(=C\c2ccc3nccnc3c2)S1 [AS605240]
- activity of free drug (survival) (PCI model, C57/BL6 mice): active

SMILES: CN(C)CCCn1cc(C2=C(c3c[nH]c4ccccc34)C(=O)NC2=O)c2ccccc21 [BIM-1]
- activity of free drug (survival) (PCI model, C57/BL6 mice): active
